Assay results as given in patent publication US20240124439A1, “Pyrido[2,3-D]Imidazole Derivatives and Their Use As Inhibitors of ITK for the Treatment of Skin Disease” (Pfizer Inc., priority 2020, published 2024).

Columns and labels:
[1] = system: activated CD4+ human T-cells (IL-2); assay: IL-2 inhibition in supernatants from activated CD4+ human T-cells (cisbio HTRF); assay type: cell-based; details: T-cell; CD3/CD28-activated CD4+ human T cells, ImmunoCult stimulation 20 to 24 hrs; geometric mean of count n
Outline: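 Primary human CD4+ T cells activated with CD3/CD28 for 3 days and expanded to 7-9 days total, plated at 30,000 cells/well. Cells preincubated 15 min with compound, then stimulated with ImmunoCult (1:50 final) for 20-24 h at 37° C. Supernatant IL-2 measured by HTRF (665/615 nm); IC50 from four-parameter logistic fit.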

[2] = molecular target: IL-2-Inducible T-Cell Kinase (ITK) (Homo sapiens (Human), UniProt Q08881); assay: ITK enzyme assay (IL-2-inducible T-cell kinase activity); assay type: biochemical; details: geometric mean of count n
Outline: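 Full-length N-Flag/C-His human ITK, pre-incubated 30 min at RT with compound. Reaction in HEPES pH 7.5 buffer with MgCl2, glutathione, gelatin and Brij-35, started with BTK peptide substrate, 60 min at RT. EDTA stop, PT66/APC TR-FRET detection overnight; IC50 fitted by four-parameter logistic.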

Sequence of IL-2-Inducible T-Cell Kinase (ITK) (Q08881 whole entry): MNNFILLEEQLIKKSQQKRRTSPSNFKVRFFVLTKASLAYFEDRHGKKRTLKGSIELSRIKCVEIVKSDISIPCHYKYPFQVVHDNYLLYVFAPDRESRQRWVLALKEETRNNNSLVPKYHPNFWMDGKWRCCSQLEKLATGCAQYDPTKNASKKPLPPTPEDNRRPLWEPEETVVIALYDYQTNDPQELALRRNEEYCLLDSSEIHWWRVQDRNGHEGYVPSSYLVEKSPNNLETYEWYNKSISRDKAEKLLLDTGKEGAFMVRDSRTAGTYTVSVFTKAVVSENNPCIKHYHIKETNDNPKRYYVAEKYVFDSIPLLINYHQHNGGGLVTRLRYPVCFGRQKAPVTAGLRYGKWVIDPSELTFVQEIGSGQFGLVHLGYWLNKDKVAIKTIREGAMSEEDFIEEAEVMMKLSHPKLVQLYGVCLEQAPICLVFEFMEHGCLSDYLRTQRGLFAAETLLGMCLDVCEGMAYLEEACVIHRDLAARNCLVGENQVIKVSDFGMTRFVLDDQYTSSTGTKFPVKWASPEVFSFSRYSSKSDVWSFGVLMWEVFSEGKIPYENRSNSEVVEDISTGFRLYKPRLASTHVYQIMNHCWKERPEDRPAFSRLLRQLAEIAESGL

Row | SMILES | IC50 [1] [µM] | IC50 [2] [µM]
1 | CN(C(=O)C1CCCC1)c1cnc2nc(-c3n[nH]c4c3C[C@@H]3C[C@]3(C)C4)[nH]c2c1 [Example 81, N-Methyl-N-(2-((4aS,5aR)-5a-methyl-1,4,4a,5,5a,6-hexahydrocyclopropa[f]indazol-3-yl)-1H-imidazo[4,5-b]pyridin-6-yl)cyclopentanecarboxamide] | 0.182 | 0.021
2 | CCC(CC)C(=O)N(C)c1cnc2nc(-c3n[nH]c4c3C[C@@H]3C[C@]3(C)C4)[nH]c2c1 [Example 82, 2-Ethyl-N-methyl-N-(2-((4aS,5aR)-5a-methyl-1,4,4a,5,5a,6-hexahydrocyclopropa[f]indazol-3-yl)-1H-imidazo[4,5-b]pyridin-6-yl)butanamide] | 0.176 | 0.02
3 | CC[C@H](C)C(=O)N(C)c1cnc2nc(-c3n[nH]c4c3C[C@@H]3C[C@]3(C)C4)[nH]c2c1 [Example 83, (S)-N,2-Dimethyl-N-(2-((4aS,5aR)-5a-methyl-1,4,4a,5,5a,6-hexahydrocyclopropa[f]indazol-3-yl)-1H-imidazo[4,5-b]pyridin-6-yl)butanamide] | 0.371 | 0.047
4 | CN(C(=O)C12CC(C1)C2)c1cnc2nc(-c3n[nH]c4c3C[C@@H]3C[C@]3(C)C4)[nH]c2c1 [Example 85, N-Methyl-N-(2-((4aS,5aR)-5a-methyl-1,4,4a,5,5a,6-hexahydrocyclopropa[f]indazol-3-yl)-1H-imidazo[4,5-b]pyridin-6-yl)bicyclo[1.1.1]pentane-1-carboxamide] | 1.22 | 0.091
5 | CC[C@@H](C)C(=O)N(C)c1cnc2nc(-c3n[nH]c4c3C[C@@H]3C[C@]3(C)C4)[nH]c2c1 [Example 87, (R)-N,2-Dimethyl-N-(2-((4aS,5aR)-5a-methyl-1,4,4a,5,5a,6-hexahydrocyclopropa[f]indazol-3-yl)-1H-imidazo[4,5-b]pyridin-6-yl)butanamide] | 0.246 | 0.026
6 | CCC(C)(C)C(=O)N(C)c1cnc2nc(-c3n[nH]c4c3C[C@@H]3C[C@]3(C)C4)[nH]c2c1 [Example 88, N,2,2-Trimethyl-N-(2-((4aS,5aR)-5a-methyl-1,4,4a,5,5a,6-hexahydrocyclopropa[f]indazol-3-yl)-1H-imidazo[4,5-b]pyridin-6-yl)butanamide] | 0.808 | 0.118
7 | CN(c1cnc2nc(-c3n[nH]c4c3C[C@@H]3C[C@]3(C)C4)[nH]c2c1)C(=O)[C@H]1C[C@@H](C)C1 [Example 89, (1s,3R)-N,3-Dimethyl-N-(2-((4aS,5aR)-5a-methyl-1,4,4a,5,5a,6-hexahydrocyclopropa[f]indazol-3-yl)-1H-imidazo[4,5-b]pyridin-6-yl)cyclobutane-1-carboxamide] | 0.324 | 0.027
8 | CN(C(=O)C1CCOCC1)c1cnc2[nH]c(-c3n[nH]c4c3CCC(C)(C)C4)nc2c1 [Example 90, N-(2-(6,6-Dimethyl-4,5,6,7-tetrahydro-1H-indazol-3-yl)-3H-imidazo[4,5-b]pyridin-6-yl)-N-methyltetrahydro-2H-pyran-4-carboxamide] | 0.892 | 0.545
9 | CN(C(=O)CC(C)(C)C)c1cnc2[nH]c(-c3n[nH]c4c3CCC(C)(C)C4)nc2c1 [Example 91, N-(2-(6,6-Dimethyl-4,5,6,7-tetrahydro-1H-indazol-3-yl)-3H-imidazo[4,5-b]pyridin-6-yl)-N,3,3-trimethylbutanamide] | 0.384 | 0.144
10 | CC[C@H](C)C(=O)N(C)c1cnc2[nH]c(-c3n[nH]c4c3CCC(C)(C)C4)nc2c1 [Example 92, (S)-N-(2-(6,6-Dimethyl-4,5,6,7-tetrahydro-1H-indazol-3-yl)-3H-imidazo[4,5-b]pyridin-6-yl)-N,2-dimethylbutanamide] | > 10 | 0.698
11 | CCC1(C(=O)N(C)c2cnc3[nH]c(-c4n[nH]c5c4CCC(C)(C)C5)nc3c2)CCOCC1 [Example 94, N-(2-(6,6-Dimethyl-4,5,6,7-tetrahydro-1H-indazol-3-yl)-3H-imidazo[4,5-b]pyridin-6-yl)-4-ethyl-N-methyltetrahydro-2H-pyran-4-carboxamide] | 3.17 | 0.307
12 | CN(C(=O)C1(F)CCOCC1)c1cnc2[nH]c(-c3n[nH]c4c3CCC(C)(C)C4)nc2c1 [Example 98, N-(2-(6,6-Dimethyl-4,5,6,7-tetrahydro-1H-indazol-3-yl)-3H-imidazo[4,5-b]pyridin-6-yl)-4-fluoro-N-methyltetrahydro-2H-pyran-4-carboxamide] | 1.31 | 0.122
13 | CN(C(=O)CC(C)(C)C(F)F)c1cnc2[nH]c(-c3n[nH]c4c3CCC(C)(C)C4)nc2c1 [Example 99, N-(2-(6,6-Dimethyl-4,5,6,7-tetrahydro-1H-indazol-3-yl)-3H-imidazo[4,5-b]pyridin-6-yl)-4,4-difluoro-N,3,3-trimethylbutanamide] | 0.233 | 0.059
14 | CN(C(=O)C1(C)CC(F)(F)C1)c1cnc2[nH]c(-c3n[nH]c4c3CCC(C)(C)C4)nc2c1 [Example 100, N-(2-(6,6-Dimethyl-4,5,6,7-tetrahydro-1H-indazol-3-yl)-3H-imidazo[4,5-b]pyridin-6-yl)-3,3-difluoro-N,1-dimethylcyclobutane-1-carboxamide] | 0.682 | 0.104
15 | CN(C(=O)C1(F)CCCCC1)c1cnc2[nH]c(-c3n[nH]c4c3CCC(C)(C)C4)nc2c1 [Example 101, N-(2-(6,6-Dimethyl-4,5,6,7-tetrahydro-1H-indazol-3-yl)-3H-imidazo[4,5-b]pyridin-6-yl)-1-fluoro-N-methylcyclohexane-1-carboxamide] | 0.464 | 0.048
16 | CC(C)CC(=O)N(C)c1cnc2[nH]c(-c3n[nH]c4c3CCC(C)(C)C4)nc2c1 [Example 102, N-(2-(6,6-Dimethyl-4,5,6,7-tetrahydro-1H-indazol-3-yl)-3H-imidazo[4,5-b]pyridin-6-yl)-N,3-dimethylbutanamide] | 0.749 | 0.269
17 | CC(C)C(=O)N(C)c1cnc2[nH]c(-c3n[nH]c4c3CCC(C)(C)C4)nc2c1 [Example 103, N-(2-(6,6-Dimethyl-4,5,6,7-tetrahydro-1H-indazol-3-yl)-3H-imidazo[4,5-b]pyridin-6-yl)-N-methylisobutyramide] | 0.392 | 0.104
18 | CN(C(=O)C1(C)CCC1)c1cnc2[nH]c(-c3n[nH]c4c3CCC(C)(C)C4)nc2c1 [Example 104, N-(2-(6,6-Dimethyl-4,5,6,7-tetrahydro-1H-indazol-3-yl)-3H-imidazo[4,5-b]pyridin-6-yl)-N,1-dimethylcyclobutane-1-carboxamide] | 0.517 | 0.101
19 | CN(C(=O)C1CCC1)c1cnc2[nH]c(-c3n[nH]c4c3CCC(C)(C)C4)nc2c1 [Example 105, N-(2-(6,6-Dimethyl-4,5,6,7-tetrahydro-1H-indazol-3-yl)-3H-imidazo[4,5-b]pyridin-6-yl)-N-methylcyclobutanecarboxamide] | 0.732 | 0.123
20 | CC(C)CCC(=O)N(C)c1cnc2[nH]c(-c3n[nH]c4c3CCC(C)(C)C4)nc2c1 [Example 106, N-(2-(6,6-Dimethyl-4,5,6,7-tetrahydro-1H-indazol-3-yl)-3H-imidazo[4,5-b]pyridin-6-yl)-N,4-dimethylpentanamide] | 1.09 | 0.245
21 | CCC(CC)C(=O)N(C)c1cnc2[nH]c(-c3n[nH]c4c3CCC(C)(C)C4)nc2c1 [Example 107, N-(2-(6,6-Dimethyl-4,5,6,7-tetrahydro-1H-indazol-3-yl)-3H-imidazo[4,5-b]pyridin-6-yl)-2-ethyl-N-methylbutanamide] | 1.87 | 0.564
22 | CCCC(=O)N(C)c1cnc2[nH]c(-c3n[nH]c4c3CCC(C)(C)C4)nc2c1 [Example 108, N-(2-(6,6-Dimethyl-4,5,6,7-tetrahydro-1H-indazol-3-yl)-3H-imidazo[4,5-b]pyridin-6-yl)-N-methylbutyramide] | 0.367 | 0.1
23 | CN(C(=O)C1(C)CCOCC1)c1cnc2[nH]c(-c3n[nH]c4c3CCC(C)(C)C4)nc2c1 [Example 109, N-(2-(6,6-Dimethyl-4,5,6,7-tetrahydro-1H-indazol-3-yl)-3H-imidazo[4,5-b]pyridin-6-yl)-N,4-dimethyltetrahydro-2H-pyran-4-carboxamide] | 0.908 | 0.421
24 | CN(C(=O)C1CCC(F)(F)CC1)c1cnc2[nH]c(-c3n[nH]c4c3CCC(C)(C)C4)nc2c1 [Example 110, N-(2-(6,6-Dimethyl-4,5,6,7-tetrahydro-1H-indazol-3-yl)-3H-imidazo[4,5-b]pyridin-6-yl)-4,4-difluoro-N-methylcyclohexane-1-carboxamide] | 1.59 | 0.554
25 | CN(C(=O)C1(C)CCCCO1)c1cnc2[nH]c(-c3n[nH]c4c3CCC(C)(C)C4)nc2c1 (stereo not drawn) [Example 112, N-(2-(6,6-Dimethyl-4,5,6,7-tetrahydro-1H-indazol-3-yl)-3H-imidazo[4,5-b]pyridin-6-yl)-N,2-dimethyltetrahydro-2H-pyran-2-carboxamide] | 0.895 | 0.234
26 | CN(C(=O)C1CCCC1)c1cnc2[nH]c(-c3n[nH]c4c3CCC(C)(C)C4)nc2c1 [Example 113, N-(2-(6,6-Dimethyl-4,5,6,7-tetrahydro-1H-indazol-3-yl)-3H-imidazo[4,5-b]pyridin-6-yl)-N-methylcyclopentanecarboxamide] | 1.62 | 0.35
27 | CN(C(=O)CC1CCOCC1)c1cnc2[nH]c(-c3n[nH]c4c3CCC(C)(C)C4)nc2c1 [Example 114, N-(2-(6,6-Dimethyl-4,5,6,7-tetrahydro-1H-indazol-3-yl)-3H-imidazo[4,5-b]pyridin-6-yl)-N-methyl-2-(tetrahydro-2H-pyran-4-yl)acetamide] | 1.51 | 0.156
